Entries after “also recorded” stand apart in the source; their conditions may differ. Square brackets hold non-standard residues; d marks the D form.
Tests used:
OT-II cells = assay: In vitro activation assay of OT-II lymphocytes on nanofiber-coated wells, cytokines by flow cytometry; type: cell-based, mice; settings: 6 h stimulation; for Cytokine (IFN-γ, IL-2) production by OT-II cells: nanofibers without OVA
Text: OVA-KFE8D Nanofibers Induce Robust CD4 T Helper Cell Responses. OVA (ISQAVHAAHAEINEAGR) (SEQ ID NO: 26), is a well-characterized CD4+ T helper epitope, a portion of which is also recognized by B cells (ISQAVHAAHA) (SEQ ID NO: 58) (Robertson, et al., 2000). Therefore, immunization with OVA leads to both CD4+ T cell activation and antibody production and studies have shown that antibody responses against OVA are CD4+ T celldependent (Rudra, et al., 2012; Robertson, et al., 2000). To assess whether the enantiomeric nature of nanofibers that contributed to enhanced antibody responses also leads to differential CD4+ T helper cell functionality, we utilized transgenic mice (OT-II mice) that have CD4+ T cells (OT-II cells) whose receptors recognize OVA in the context of MHC-class II molecules.30 CD4+ T cell responses were assessed using an in vitro activation assay. Whole lymphocyte extracts (containing antigen-presenting cell, B cell, and CD4+ T cell populations) from OT-II mice were cultured in wells coated with OVA-bearing enantiomers, and 6 h later the production of cytokines IFN-γ and IL-2 were measured using flow cytometry. Lymphocytes stimulated with PBS or free OVA peptide were used as negative and positive controls, respectively.

C57BL/6 mice [1] = assay: Subcutaneous immunization with OVA-KFE8 enantiomers, antibody responses by ELISA (Example 4); type: in vivo; settings: for Total IgG antibody response: s.c., boost day 28
C57BL/6 mice [2] = assay: Subcutaneous immunization of mice, serum antibody titers and isotypes by ELISA (Example 1); type: in vivo
Experimental: To investigate how fibrillization affected the immunogenicity of OVA, C57BL/6 mice were immunized subcutaneously with the different peptides and boosted with additional peptide at 28 days (see methods). Serum was collected seven days after the boost, and levels of various immunoglobulins were measured.
Immunizations. […] Stock solutions were then diluted in sterile, endotoxin-free PBS to working concentrations. […] CFA-adjuvanted groups received the same volume and total peptide dose, prepared by emulsifying peptide/PBS solutions 1:1 in CFA. […] CFA groups were boosted in incomplete Freund's adjuvant (IFA). Mice receiving mixtures of Q11 and OVA received 100 nmol of each peptide in the first injection and 50 nmol of each in the second. Seven days after the boost, the mice were sacrificed, and sera and spleens were harvested.
Determination of antibody titers. High-binding ELISA plates (eBioscience) were coated with either 20 μg/mL peptide in PBS or PBS alone (for uncoated background subtraction) overnight at 4° C. […] To determine titers for each antiserum, background absorbance values from uncoated wells were subtracted from coated wells, and net absorbances were compared to cutoff values. The cutoff consisted of the mean plus three times the standard deviation of the negative control group (mice receiving OVA without adjuvant) for each corresponding dilution. Any sample dilutions having absorbances above this cutoff value were considered positive readings. The titer was considered as the highest dilution for which it and all lower dilutions had positive readings. If no positive dilutions were present the titer was considered to be 10^2. […] Antibody isotypes were analyzed similarly using a mouse monoclonal antibody kit containing goat anti-mouse IgG1, IgG2a, IgG2b, IgG3, and IgM (Sigma).

[3] = test system: antigen-specific T cells in the draining lymph nodes; assay: CD8 T cell responses after footpad immunization, tetramer staining of draining lymph nodes; type: in vivo, mice

## CC(=O)N[C@@H](Cc1ccccc1)C(=O)N[C@@H](CCCCN)C(=O)N[C@@H](Cc1ccccc1)C(=O)N[C@@H](CCC(=O)O)C(=O)N[C@@H](Cc1ccccc1)C(=O)N[C@@H](CCCCN)C(=O)N[C@@H](Cc1ccccc1)C(=O)N[C@@H](CCC(=O)O)C(N)=O [KFE8(L), Ac-FKFEFKFE-Am]
OT-II cells
  Cytokine (IFN-γ, IL-2) production by OT-II cells: no cytokine production

## H-ISQAVHAAHAEINEAGR-OH [OVA, H2N-ISQAVHAAHAEINEAGR-OH, reference compound]
C57BL/6 mice [1]
  Total IgG antibody response: did not raise any detectable IgG
C57BL/6 mice [2]; peptide in PBS without added adjuvant, s.c., boost day 28, serum 7 days after boost
  Total IgG response: did not raise detectable IgG; also recorded: did not elicit a response
C57BL/6 mice [2]; without adjuvant, baseline level of detection
  IgG titer: 10^2

## H2N-FKFEFKFEGGAAYSIINFEKL-Am (H-FKFEFKFEGGAAYSIINFEKL-NH2; not fully specified (some residues)) [SIN-KFE8(L)]
[3]; boost day 28, evaluated day 32
  Memory CD8 T cell response: antigen-specific T cells in lymph nodes, compared with the enantiomer: significantly higher numbers of antigen-specific T cells
[3]; mouse, in vivo
  Effector and memory CD8+ T cell responses / tetramer+ CD8 T cells: robust effector and memory CD8+ T cell responses; also recorded: higher numbers of tetramer+CD8 T cells

## CC(=O)N[C@H](Cc1ccccc1)C(=O)N[C@H](CCCCN)C(=O)N[C@H](Cc1ccccc1)C(=O)N[C@H](CCC(=O)O)C(=O)N[C@H](Cc1ccccc1)C(=O)N[C@H](CCCCN)C(=O)N[C@H](Cc1ccccc1)C(=O)N[C@H](CCC(=O)O)C(N)=O [KFE8(D), Ac-^DF^DK^DF^DE^DF^DK^DF^DE-Am]
OT-II cells
  Cytokine (IFN-γ, IL-2) production by OT-II cells: no cytokine production

## H2N-ISQAVHAAHAEINEAGRSGSG^DF^DK^DF^DE^DF^DK^DF^DE-Am (H-ISQAVHAAHAEINEAGRSGSG[dF][dK][dF][dE][dF][dK][dF][dE]-NH2; SMILES CC[C@H](C)[C@H](N)C(=O)N[C@@H](CO)C(=O)N[C@@H](CCC(N)=O)C(=O)N[C@@H](C)C(=O)N[C@H](C(=O)N[C@@H](Cc1c[nH]cn1)C(=O)N[C@@H](C)C(=O)N[C@@H](C)C(=O)N[C@@H](Cc1c[nH]cn1)C(=O)N[C@@H](C)C(=O)N[C@@H](CCC(=O)O)C(=O)N[C@H](C(=O)N[C@@H](CC(N)=O)C(=O)N[C@@H](CCC(=O)O)C(=O)N[C@@H](C)C(=O)NCC(=O)N[C@@H](CCCNC(=N)N)C(=O)N[C@@H](CO)C(=O)NCC(=O)N[C@@H](CO)C(=O)NCC(=O)N[C@H](Cc1ccccc1)C(=O)N[C@H](CCCCN)C(=O)N[C@H](Cc1ccccc1)C(=O)N[C@H](CCC(=O)O)C(=O)N[C@H](Cc1ccccc1)C(=O)N[C@H](CCCCN)C(=O)N[C@H](Cc1ccccc1)C(=O)N[C@H](CCC(=O)O)C(N)=O)[C@@H](C)CC)C(C)C) [OVA-KFE8(D)]
C57BL/6 mice [1]; IgG2a, IgG2b, IgG3, IgM, IgA
  Antibody isotype levels compared to OVA-KFE8(L): Significantly higher levels of all antibody isotypes
C57BL/6 mice [1]; mouse, in vivo
  Anti-OVA antibodies on plates coated with free OVA peptide compared to OVA-KFE8(L): higher levels of anti-OVA antibodies; also recorded: Significantly higher levels of antibodies
  IgG2a, IgM, and IgA production compared to OVA in ISA-720: significantly higher
  OVA-specific antibodies compared to OVA-KFE8(L), SGSG-KFE8 control wells subtracted: significantly higher levels of OVA-specific antibodies
C57BL/6 mice [1]; plates coated with free OVA peptide
  Dominant antibody isotype: IgG1
C57BL/6 mice [1]
  Total IgG antibody response: robust antibody responses
C57BL/6 mice [1]; series of serum dilutions
  Antibody levels compared to OVA-KFE8(L) nanofibers or OVA in ISA-720: Significantly higher levels of total IgG
C57BL/6 mice [1]; week 2 up to the boost at week 4
  Antibody levels pre-boost compared to OVA-KFE8(L): significantly higher levels of antibodies
OT-II cells
  Difference in IFN-γ and IL-2 production / CD4+ T cell activation between the enantiomers: no significant differences
  IFN-γ production by OT-II cells compared to wells coated with PBS or bare nanofibers: significantly higher levels
  IL-2 production by OT-II cells compared to wells coated with PBS or bare nanofibers: significantly higher levels

## H2N-^DF^DK^DF^DE^DF^DK^DF^DEGGAAYSIINFEKL-Am [SIN-KFE8(D)]
[3]; footpad, boost day 5, evaluated day 8
  Effector CD8 T cell response: antigen-specific T cells in draining lymph nodes, compared with the enantiomer: significantly lower numbers of antigen-specific T cells

Reference: patent US9849174B2, “Methods and compositions related to immunogenic fibrils” (The Board of Regents of the University of Texas System, priority 2009, dated 2017)
